Earlier results, collected in US5314690A, “Method and composition for treating IgE-mediated allergies” (Northwestern University, priority 1992, dated 1994).
Read-outs that look alike come from different tables or passages of the source. Where no end group is shown, it is not given here.

How the values were obtained:
[1] = test system: immune response; conditions: reported by Siemion et al.; for Effect on the immune response at low doses: low doses (one dose)
[2] = test system: immune response; conditions: reported by Siemion et al.
[3] = listed as N-terminal tetrapeptide
[4] = listed as C-terminal pentapeptide

Row | Substance | Effect on the immune response at higher doses [1] | Effect on the immune response at higher doses [1, 3] | Effect on the immune response at low doses [1] | Effect on the immune response at low doses [1, 3] | Effect on the immune response in vitro [2] | Effect on the immune response in vitro [2, 4] | Effect on the immune response in vivo [1] | Effect on the immune response in vivo [1, 4]
1 | Gly-Pro-Arg-Pro (GPRP) [SP^1-4, No. 5] | slightly stimulated | stimulatory at a higher dose | only moderately suppressed the immune response | suppressive at one dose |  |  |  | 
2 | Phe-Phe-Gly-Leu-Met-NH2 (FFGLM-NH2) [SP^7-11, No. 2] |  |  |  |  | suppressed the immune response in vitro | immunosuppressant | distinct immuno-suppression in vivo | immunosuppressant
